We go through three compounds from US8633251B2, “Derivatives of aminoalkanols, method of obtaining of aminoalkanols and their use” (Uniwersytet Jagiellonski, priority 2008, dated 2014).

Molecules are shown by their SMILES. Like-named read-outs stand apart in the source and are kept apart here. Some results are limits rather than exact numbers.

What is called ED50 is the midpoint of the dose-response relation.

Series [1] concerns maximal electroshock seizures. The series can be described thus: Maximum Electroshock Seizure (MES) test, mice. Format: in vivo. An outline of the steps:
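Mice received compound in methylcellulose i.p. or p.o. at 30, 100 and 300 mg/kg, with some tests at 10 and 3 mg/kg. At 0.5 or 4 h, after tetracaine eye-drops, current was delivered through corneal electrodes (60 Hz, 0.2 s, 50 mA). Groups were one mouse at 30 and 300 mg/kg and three at 100 mg/kg.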

The test system of a further series is neurotoxicity (rotarod). Kind of series: Neurotoxicity test (TOX), rotarod, mice. As to conditions: mice. Type of series: in vivo.
Series [2] relates to hippocampal kindling seizures. The series can be described thus: Electric hippocampal kindling, rats. Type of series: in vivo. The method, then: (§1) For some compounds, a test for proconvulsant activity was performed (TTE test), as well as a test on activity in focal seizures (related with limbic system, 6 Hz test, hippocampal kindling). […] A test on inhibiting seizures induced by sound (Frings mice) was performed for compounds 12 and 26-28. Electrophysiology tests also have been performed, for seizures induced by bicuculline, picrotoxin, and NMDA. Prevention of (pilocarpine induced) status epilepticus has been noticed.

In series [3] the test system is pilocarpine induced status epilepticus. Kind of series: Status epilepticus prevention (pilocarpine), rats. To be noted: i.p. Type of series: in vivo, Sprague Dawley albino rat. The protocol:
Status epilepticus prevention—an animal (Sprague Dawley albino rat male) is given a dose of tested substance. After 0, 0.25, 0.5, 1, 2, and 4 h pilocarpine is administered. The seizures induced are described by Racine's score. Compounds 27 and 28 were administered i.p. in doses 25 and 45 mg/kg b.w. respectively. […] Average body weight loss is measured 24 h after administration.

Series [4] concerns maximal electroshock seizures. The series can be described thus: Maximum Electroshock Seizure (MES) test, rats. Type of series: in vivo. The method, then:
In order to define anticonvulsant activity, screening tests were performed, using animal models of seizures. […] The tests were based on administration of a compound to an animal and after certain time inducing state similar to epilepsy attack in human. Each substance (after dissolving in methylcellulose) was normally tested in doses 30, 100, and 300 mg/kg body weight (b.w.) (mice) or in 30 and 50 mg/kg b.w. (rats) in two possible routes of administration: intraperitoneal (i.p.) or oral (p.o.). […] […] (mice) the tests were also performed in doses 10 and 3 mg/kg b.w.
Maximum Electroshock Seizure (MES) test is an electric test, verifying activity towards generalized tonic-clonic seizures (grand mal epilepsy). […] Its procedure consists in administration to an animal a mentioned dose, […] (after anesthetic eye-drops: 0.5% tetracaine hydrochloride in 0.9% NaCl) and turning on electric current (60 Hz, 0.2 s, 50 mA (mice) or 150 mA (rats)). […]

For series [5], the system named is 6 Hz focal seizures (limbic system). The series can be described thus: 6 Hz test, mice. Type of series: in vivo. To be noted: for ED50: Mus musculus, ip, 0.25 h. The method, then:
as §1

In series [6] the test system is seizures induced by sound. The series can be described thus: Sound-induced seizures, Frings mice. Format: in vivo. The method, then: as §1
Series [7] has as its system seizures induced by bicuculline. Kind of series: Bicuculline (BIC) induced seizures. Type of series: in vivo. The protocol:
as §1

Series [8] deals with seizures induced by picrotoxin. The series can be described thus: Picrotoxin (PIC) induced seizures. Type of series: in vivo. The protocol:
as §1

The subject of series [9] is metrazol seizure threshold. The series can be described thus: Metrazol test, time to first twitch and first clonus. Type of series: in vivo. To be noted: for average time until the first twitch: control 30.07 (±1.23) min.; for average time from administration until the first clonus: control 34.38 (±0.94) min. The method, then:
In the MES test it inhibits seizures by inhibiting post-synaptic excitatory current. […] In the metrazol test average time until the first twitch was 27.3±0.2 min. for the dose 5 mg/kg b.w. and 27.6 (±0.3) min. for the dose 30 mg/kg b.w., comparing to the control 30.07 (±1.23) min. Average time from administration until the first clonus was 33.6 (±1.23) min. for the dose 5 mg/kg b.w. and 32.70 (±1.28) for the dose 30 mg/kg b.w., comparing to the control 34.38 (±0.94) min.

The test system of series [10] is formalin-induced pain (acute/neuropathic and inflammatory phase). The series can be described thus: Formalin test, mice. Type of series: in vivo. The protocol:
The test was performed with use of formaldehyde as a substance causing pain (neuropathic and inflammatory afterwards) in mice, which were injected formalin into a hind limb.
During the first 10 min. after administration the mouse is licking the hind limb (acute phase), afterwards there is a short break in behavior change, and then the mouse licks its limb again for another 20-30 min. (inflammatory phase) (FIG. 3 for 12 and FIG. 4 for 26). The acute phase represents direct affection on the peripheral nerve and the inflammatory phase is related with secretion of inflammation mediators from the damaged tissue and nerves. The described model tests effectiveness of a substance to inhibit acute and chronic excessive neuronal discharges in response to peripheral nerves activation.

Series [11] concerns voltage-gated sodium channels. The series can be described thus: Electrophysiology, voltage-gated sodium channels. Format: biochemical.
In series [12] the test system is LTG-resistant amygdala seizures. Kind of series: Lamotrigine-resistant amygdala kindling, rats. Type of series: in vivo. To be noted: t=0.25 h, i.p.
Setting [13] is: mice, dose 30 mg/kg b.w., time 0.5 h.
The mark [14] stands for this setting: mice, dose 100 mg/kg b.w., time 0.5 h.
The mark [15] stands for this setting: dose 100 mg/kg b.w., time 0.5 h.
Where [16] appears, read: dose 300 mg/kg b.w., time 0.5 h.

With `CC[C@@H](CO)NCCOc1c(C)cccc1Cl` [Compound 28, S-(+)-2N-[(2-chlor-6-methylphenoxy)ethyl]amino-1-butanol], the “MES, No. of protected animals/No. of used animals” value in series [1] (setting [13]) and in series [1] (setting [14]) was 1/1 in each case. For the same compound, the “TOX, No. of animals exhibiting motor impairment/no. of used animals” value with neurotoxicity (rotarod) (setting [15]) is recorded as 8/8; with neurotoxicity (rotarod) (setting [16]) it was 4/4. The “ED50 (kindling, rats, hippocampus, 0.25 h)” value in series [2] was 15.81 mg/kg b.w. Besides, in series [3] (body weight loss 24 h after administration, 25 (27) or 45 (28) mg/kg b.w.), the “Average weight loss ± S.E.M.” value amounted to 3.8 ± 5.7. Besides, the “protection in status epilepticus prevention” value in series [3] (25 (27) and 45 (28) mg/kg b.w.) is 3 rats out of 8. The Protection in series [3] (rats protected/tested, time 0 h, dose 25 (27) or 45 (28) mg/kg b.w.) is listed as 3/8.

For the compound `Cc1cccc(C)c1OCCN[C@H](C)CO` [Compound 12, R-(−)-2N-[(2,6-dimethylphenoxy)ethyl]amino-1-propanol], in series [1] (Mus musculus, mice, dose 10 mg/kg b.w., time 0.5 h, read-out: MES, No. of protected animals/No. of used animals (converted)), the responders at 10 mg/kg is 25%. The responders at 30 mg/kg in [1] (Mus musculus, mice, dose 30 mg/kg b.w., time 0.5 h, read-out: MES, No. of protected animals/No. of used animals) came to 100%. For the same compound, the responders at 100 mg/kg in series [1] (Mus musculus, mice, dose 100 mg/kg b.w., time 0.5 h, read-out: MES, No. of protected animals/No. of used animals (converted)) was 100%; in series [1] (Mus musculus, mice, dose 100 mg/kg b.w., time 4 h, read-out: MES, No. of protected animals/No. of used animals (converted)), 50%. The “ED50 (MES, female mice, i.p., 0.25 h)” value in [1] (female mice, i.p., 0.25 h) was 22.28 mg/kg b.w. Moreover, the “activity in MES, mice” value in series [1] (mice) is recorded as “active”. The “ED50 (MES, mice, i.p., 0.25 h)” value in series [1] (mice, i.p., 0.25 h) stood at 5.34 mg/kg b.w. In addition, the “ED50 (MES, mice, p.o., 0.25 h)” value in series [1] (mice, p.o., 0.25 h) was found to be 51.19 mg/kg b.w. Besides, in series [4], the “activity in MES, rats” value was “active”. Besides, the “ED50 (MES, rats, i.p., 0.25 h)” value in [4] is recorded as 7.43 mg/kg b.w. Further, in series [4], the “ED50 (MES, rats, p.o., 0.25 h)” value came out at 28.60 mg/kg b.w. For the same compound, the “TOX, No. of animals exhibiting motor impairment/no. of used animals” value was 8/8 in the series on neurotoxicity (rotarod) (setting [15]); 1/3 with neurotoxicity (rotarod) (dose 100 mg/kg b.w., time 4 h, 100 mg/kg); 4/4 in the series with neurotoxicity (rotarod) (setting [16]). The ED50 in [5] (read-out: ED50 (6 Hz, female mice, i.p., 22 mA, 0.25 h)) was determined as 7.06 mg/kg; in series [5] (read-out: ED50 (6 Hz, mice, i.p., 22 mA, 0.25 h)), 43.8 mg/kg. Also, the “ED50 (6 Hz, female mice, i.p., 44 mA, 0.25 h)” value in series [5] (female mice, i.p., 44 mA) is given as 41.3 mg/kg b.w. In [5] (mice, i.p., 44 mA), the “ED50 (6 Hz, mice, i.p., 44 mA, 0.25 h)” value is listed as 30.02 mg/kg b.w. Moreover, the “ED50 (Frings mice, 0.25 h)” value in series [6] (Frings mice) is 5.39 mg/kg b.w. The “activity in electric kindling (rats, hippocampus)” value in series [2] (0.25 h after administration of 60 mg/kg b.w.) is “reveals activity”. Further, the “ED50 (kindling, rats, hippocampus, 0.25 h)” value in series [2] was more than 30 mg/kg b.w. The “ED50 (BIC, 0.25 h)” value in series [7] is more than 75 mg/kg b.w. Besides, in series [8], the “ED50 (PIC, 0.25 h)” value is reported as more than 75 mg/kg b.w. The “average time until the first twitch” value in series [9] (dose 5 mg/kg b.w.) is 27.3 ± 0.2 min; in series [9] (dose 30 mg/kg b.w.) it was 27.6 (±0.3) min. Also, the “average time from administration until the first clonus” value in series [9] (dose 5 mg/kg b.w.) is on record as 33.6 (±1.23) min; in series [9] (dose 30 mg/kg b.w.), 32.70 (±1.28). Moreover, in series [10] (mice), the “formalin test result (FIG. 3)” value is “inhibiting neuropathic pain (first 10 min. phase) and inflammatory pain (next 30 min. phase)”. The “effect on voltage-gated sodium channels” value in series [11] is given as “blocks voltage-gated sodium channels dependently on the voltage”.

In the case of `CCC(CO)NCCOc1c(C)cccc1Cl` (stereo not shown) [Compound 26, R,S-2N-[(2-chlor-6-methylphenoxy)ethyl]amino-1-butanol], the “MES, No. of protected animals/No. of used animals” value in [1] (mice, dose 10 mg/kg b.w., time 0.5 h) was 2/4; in series [1] (setting [13]), 1/1; in [1] (setting [14]), 1/1. The “ED50 (MES, mice, i.p., 0.25 h)” value in [1] (mice, i.p., 0.25 h) was determined as 21.44 mg/kg b.w. In [4], the “ED50 (MES, rats, i.p., 0.25 h)” value is recorded as 7.3 mg/kg b.w. Further, the “ED50 (MES, rats, p.o., 0.25 h)” value in [4] stood at 67.69 mg/kg b.w. Further, the “TOX, No. of animals exhibiting motor impairment/no. of used animals” value in the series on neurotoxicity (rotarod) (setting [15]) is recorded as 8/8; in the series with neurotoxicity (rotarod) (setting [16]) it was 4/4. Also, in [6] (mice), the “ED50 (sound induced seizures, mice, 0.25 h)” value is 6.05 mg/kg b.w. The “ED50 (BIC, 0.25 h)” value in [7] was more than 70 mg/kg b.w. Besides, the “ED50 (PIC, 0.25 h)” value in [8] was more than 70 mg/kg b.w. The “neuropathic pain inhibition (formalin test)” value in series [10] (21 mg/kg b.w.) is 36%. For the same compound, the “acute phase of the formalin test” value in series [10] (mice, i.p., 21 mg/kg b.w., first ca. 10 min. after formalin, p<0.01) was 64 % of control. Besides, the “inflammatory phase of the formalin test” value in series [10] (mice, i.p., 21 mg/kg b.w., not statistically significant) is on record as 72 % of control. Also, in [12], the “effective dose (LTG-resistant amygdala seizures)” value stood at 15 mg/kg b.w.
